For assay [1], the system named is Influenza A virus. Put plainly: microbe, parasite or virus in culture. Particulars: A/WSN/1933(H1N1), MDCK, 72 h. The class given is functional, organism-based.
In assay [2] the test system is Influenza A virus. The class given is functional, organism-based.

As a reminder, the EC50 is the concentration giving half of the maximal effect. For `CC(C)N1CN(C(c2ccccc2)c2ccccc2)n2ccc(=O)c(O)c2C1=O`, the results for the EC50 in the assay with Influenza A virus [1] and with Influenza A virus [2] were 165 nM and 80.4 nM, respectively.

For the compound `CC(C)N1C[C@H](C(c2ccccc2)c2ccccc2)n2ccc(=O)c(O)c2C1=O`, the EC50 with Influenza A virus [1] was determined as 155 nM; in the assay on Influenza A virus [2] it was 89.2 nM.
